Laboratory results from patent publication US20030055010A1, “Preserving active fungicide in an aqueous solution” (priority 1999, published 2003).

Assay: Rest activity of natamycin over time in water based polymer dispersion mixtures (HPLC)
Assay type: physicochemical
Excerpt: This example describes a method to prepare a formulation suitable for use as a food coating and which was developed to test the stability of natamycin over time in relation to the added base polymers.
The mixtures were made with an electric top stirrer, type RW 20 DZM, from Janke & Kunkel equipped with a rushton stirrer.
The mixtures were made by adding 500 gram Mowilith DM2KL, 1000 gram of the latex polymer, to be tested together with 4 gram Delvocid® and a protective additive.
The total weight was made up to 2000 gram with tap water.
This crude mixture was mixed for 5 minutes to obtain a homogeneous mixture and was then adjusted to pH 4-7 with ammonia.
The mixture was stored at 18° C. in a closed pot in the dark.
The prepared mixtures were measured over time for the amount of active natamycin using the test described in Example 2.
This Example describes the method that was used to analyze the amount of active natamycin in a water based mixture of several components.
The method was a HPLC analysis based on the International Dairy Federation (Provisional ADF Standard 140, 1987) with a Lichrosorb RP 8 column. Detection was by UV at 303 nm with a range of 0.1-4 mg/L with an injection volume of 20 μl.
Sample preparation was carried out by weighing 2 g prepared formulation with an accuracy of 1 mg in a measuring flask. 4 ml demineralized water (demiwater) was added and the mixture was stirred for […] a homogeneous suspension.
Subsequently 80 ml methanol was added and the mixture was stirred for 10 minutes. After ultrasonic treatment the solution was filled up to 100 ml with demiwater and the diluted and/or filtered (0.2 μm) before injecting.
The amount of active natamycin as ppm was calculated against a series of standards.
To test the stability of natamycin in combination with water based polymer dispersions mixtures, mixtures were made according to Example 1, and the rest activity of natamycin measured according to Example 2. The results are set out in table 1 (rest activity in %).

Rest activity of natamycin over time (Basepolymer 2, EDTA-disodiumsalt 0 ppm, 0 weeks): 100%
Rest activity of natamycin over time (Basepolymer 2, EDTA-disodiumsalt 0 ppm, 1 week): 70%
Rest activity of natamycin over time (Basepolymer 2, EDTA-disodiumsalt 0 ppm, 3 weeks): 22%
Rest activity of natamycin over time (Basepolymer 2, EDTA-disodiumsalt 0 ppm, 5 weeks): 5%
Rest activity of natamycin over time (Basepolymer 2, EDTA-disodiumsalt 0 ppm, 7 weeks): 2%
Rest activity of natamycin over time (Basepolymer 2, EDTA-disodiumsalt 100 ppm, 0 weeks): 100%
Rest activity of natamycin over time (Basepolymer 2, EDTA-disodiumsalt 100 ppm, 1 week): 99%
Rest activity of natamycin over time (Basepolymer 2, EDTA-disodiumsalt 100 ppm, 3 weeks): 98%
Rest activity of natamycin over time (Basepolymer 2, EDTA-disodiumsalt 100 ppm, 5 weeks): 88%
Rest activity of natamycin over time (Basepolymer 2, EDTA-disodiumsalt 100 ppm, 7 weeks): 82%
Rest activity of natamycin over time (Basepolymer 2, EDTA-disodiumsalt 250 ppm, 0 weeks): 100%
Rest activity of natamycin over time (Basepolymer 2, EDTA-disodiumsalt 250 ppm, 1 week): 97%
Rest activity of natamycin over time (Basepolymer 2, EDTA-disodiumsalt 250 ppm, 3 weeks): 95%
Rest activity of natamycin over time (Basepolymer 2, EDTA-disodiumsalt 250 ppm, 5 weeks): 88%
Rest activity of natamycin over time (Basepolymer 2, EDTA-disodiumsalt 250 ppm, 7 weeks): 85%
Rest activity of natamycin over time (Basepolymer 2, EDTA-disodiumsalt 500 ppm, 0 weeks): 100%
Rest activity of natamycin over time (Basepolymer 2, EDTA-disodiumsalt 500 ppm, 1 week): 95%
Rest activity of natamycin over time (Basepolymer 2, EDTA-disodiumsalt 500 ppm, 3 weeks): 92%
Rest activity of natamycin over time (Basepolymer 2, EDTA-disodiumsalt 500 ppm, 5 weeks): 86%
Rest activity of natamycin over time (Basepolymer 2, EDTA-disodiumsalt 500 ppm, 7 weeks): 80%
Rest activity of natamycin over time (Basepolymer 2, EDTA-disodiumsalt 750 ppm, 0 weeks): 100%
Rest activity of natamycin over time (Basepolymer 2, EDTA-disodiumsalt 750 ppm, 1 week): 96%
Rest activity of natamycin over time (Basepolymer 2, EDTA-disodiumsalt 750 ppm, 3 weeks): 95%
Rest activity of natamycin over time (Basepolymer 2, EDTA-disodiumsalt 750 ppm, 5 weeks): 88%
Rest activity of natamycin over time (Basepolymer 2, EDTA-disodiumsalt 750 ppm, 7 weeks): 82%
Rest activity of natamycin over time (Basepolymer 2, EDTA-disodiumsalt 1000 ppm, 0 weeks): 100%
Rest activity of natamycin over time (Basepolymer 2, EDTA-disodiumsalt 1000 ppm, 1 week): 96%
Rest activity of natamycin over time (Basepolymer 2, EDTA-disodiumsalt 1000 ppm, 3 weeks): 95%
Rest activity of natamycin over time (Basepolymer 2, EDTA-disodiumsalt 1000 ppm, 5 weeks): 88%
Rest activity of natamycin over time (Basepolymer 2, EDTA-disodiumsalt 1000 ppm, 7 weeks): 81%
Rest activity of natamycin over time (Basepolymer 2, EDTA-disodiumsalt 2000 ppm, 0 weeks): 100%
Rest activity of natamycin over time (Basepolymer 2, EDTA-disodiumsalt 2000 ppm, 1 week): 97%
Rest activity of natamycin over time (Basepolymer 2, EDTA-disodiumsalt 2000 ppm, 3 weeks): 94%
Rest activity of natamycin over time (Basepolymer 2, EDTA-disodiumsalt 2000 ppm, 5 weeks): 88%
Rest activity of natamycin over time (Basepolymer 2, EDTA-disodiumsalt 2000 ppm, 7 weeks): 79%
Rest activity of natamycin over time (Basepolymer 2, EDTA-disodiumsalt 5000 ppm, 0 weeks): 100%
Rest activity of natamycin over time (Basepolymer 2, EDTA-disodiumsalt 5000 ppm, 1 week): 97%
Rest activity of natamycin over time (Basepolymer 2, EDTA-disodiumsalt 5000 ppm, 3 weeks): 95%
Rest activity of natamycin over time (Basepolymer 2, EDTA-disodiumsalt 5000 ppm, 5 weeks): 88%
Rest activity of natamycin over time (Basepolymer 2, EDTA-disodiumsalt 5000 ppm, 7 weeks): 81%
Rest activity of natamycin over time (basepolymer 3, With BHA 1000 ppm, 1 week): 96%
Rest activity of natamycin over time (basepolymer 3, With BHA 1000 ppm, 2 weeks): 92%
Rest activity of natamycin over time (basepolymer 3, With BHA 1000 ppm, 4 weeks): 84%
Rest activity of natamycin over time (basepolymer 3, With tocopherol 1000 ppm, 1 week): 92%
Rest activity of natamycin over time (basepolymer 3, With tocopherol 1000 ppm, 2 weeks): 83%
Rest activity of natamycin over time (basepolymer 3, With tocopherol 1000 ppm, 4 weeks): 76%
Rest activity of natamycin over time (basepolymer 3, Without additive, 1 week): 88%
Rest activity of natamycin over time (basepolymer 3, Without additive, 2 weeks): 70%
Rest activity of natamycin over time (basepolymer 3, Without additive, 4 weeks): 50%
Compound: C[C@@H]1C/C=C/C=C/C=C/C=C/[C@H](O[C@@H]2O[C@H](C)[C@@H](O)[C@H](N)[C@@H]2O)C[C@@H]2O[C@](O)(C[C@@H](O)C[C@H]3O[C@@H]3/C=C/C(=O)O1)C[C@H](O)[C@H]2C(=O)O [natamycin]
